Laboratory results as given in patent publication US10703757B2, “Compounds and methods for CDK8 modulation and indications therefor” (Plexxikon Inc., priority 2016, dated 2020).
pIC50: −log10 of the molar value.

Key:
[1] = tested on: CDK8 (TCF/LEF luciferase reporter in HCT116 cells); assay: Cell based TCF/LEF reporter assay (HCT116+TCF/LEF luciferase); conditions: Homo sapiens, HCT-116, 24 h
Excerpt: Determine Inhibitor Activity Against CDK8 in Cell Based TCF/LEF Reporter Assay
The colorectal carcinoma cell line HCT116 was stably transduced with lentivirus encoding the TCF/LEF promoter upstream of a luciferase reporter gene (Qiagen) and single cell clones expressing this construct (referred to as HCT116+TCF/LEF) were isolated. HCT116 express endogenous mutant β-catenin^3, resulting in up-regulation of transcription through the TCF/LEF promoter. Expression of the TCF/LEF reporter construct in HCT116 results in constitutive expression of luciferase. Treatment of the cells with inhibitors of components of the β-catenin signaling pathway (such as CDK8) results in decreased expression of luciferase. The assay is performed as follows. The HCT116+TCF/LEF cell line is seeded in a 96 well plate in 50 μL of culture media at 1×10^4 cells/well and incubated at 37° C. overnight. Serial dilutions of compounds (in total volume of 50 μL culture media) are added to the cells and incubated at 37° C. for 24 hours. 4 wells of DMSO treated cells serve as high controls and cells treated with 10 uM of the reference compound CCT251545 (a known CDK8 inhibitor)^4 serve as low controls. The viability of the cells is assayed by the addition of […] reagent (Promega) followed by 30 minute incubation at 37° C. and quantification of the fluorescent signal (Ex400/Em505). The luciferase expression is then assayed by the addition of 25 μL ONE-Glo reagent (Promega) followed by 10 minute incubation at room temperature and quantification of the luminescence signal. The luminescence signal is normalized to the fluorescence signal to correct for any loss in cell viability over the 24 hour compound incubation period. The percentage inhibition at individual concentrations relative to high and low controls is calculated. The data are analyzed by using nonlinear regression to generate IC50 values.

[2] = tested on: CDK8 (phosphorylation of STAT1 at serine 727 in A549 cells); assay: Cell based Phospho-STAT1 assay (IFNγ-stimulated A549 cells, AlphaLISA); conditions: Homo sapiens, A549, A549 cells, phospho-STAT1 after IFNγ stimulation
How it was run: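 A549 cells given serial compound dilutions for 1 h at 37 °C, then stimulated with IFNγ at 10 ng/mL final for 30 min. Lysate STAT1 Ser727 phosphorylation measured by AlphaLISA; % inhibition vs stimulated/unstimulated DMSO controls, IC50 by nonlinear regression.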

| SMILES | pIC50 [1] | pIC50 [2] |
| --- | --- | --- |
| Cc1cc(-c2ccc(-c3cnc4[nH]ccc4c3N3CCC(C#N)CC3)cc2)n[nH]1 [Compound P-0175, 1-(5-(4-(5-methyl-1H-pyrazol-3-yl)phenyl)-1H-pyrrolo[2,3-b]pyridin-4-yl)piperidine-4-carbonitrile] | 7.00 to 10.00 |  |
| COc1ncc(-c2cnn3cccc(C#CC(C)(C)O)c23)cn1 [Compound P-0288, 4-(3-(2-methoxypyrimidin-5-yl)pyrazolo[1,5-a]pyridin-4-yl)-2-methylbut-3-yn-2-ol] |  | 6.00 to 7.00 |
| CNC(=O)C1CC=C(c2cccc3ncc(-c4ccc(-c5cnn(C)c5)cc4)n23)CC1 (stereo not shown) [Compound P-0417, N-methyl-4-(3-(4-(1-methyl-1H-pyrazol-4-yl)phenyl)imidazo[1,2-a]pyridin-5-yl)cyclohex-3-ene-1-carboxamide] |  | 6.00 to 7.00 |
| Cn1cc(-c2ccc(-c3cnc4cccc(C5=CCN(S(C)(=O)=O)CC5)n34)cc2)cn1 [Compound P-0419, 3-(4-(1-methyl-1H-pyrazol-4-yl)phenyl)-5-(1-(methylsulfonyl)-1,2,3,6-tetrahydropyridin-4-yl)imidazo[1,2-a]pyridine] |  | 6.00 to 7.00 |
| Cn1ncc2cc(-c3cnc4cccc(N5CCC(C#N)CC5)n34)ccc21 [Compound P-0361, 1-(3-(1-methyl-1H-indazol-5-yl)imidazo[1,2-a]pyridin-5-yl)piperidine-4-carbonitrile] |  | 7.00 to 10.00 |
| FC(F)n1cc(-c2ccc(-c3cnc4cccc(OC5CCNCC5)n34)cc2)cn1 [Compound P-0305, 3-(4-(1-(difluoromethyl)-1H-pyrazol-4-yl)phenyl)-5-(piperidin-4-yloxy)imidazo[1,2-a]pyridine] |  | 5.00 to 6.00 |
| Cn1ncc2cc(-c3cnc4[nH]ccc4c3N3CCC(C#N)CC3)ccc21 [Compound P-0357, 1-[5-(1-methylindazol-5-yl)-1H-pyrrolo[2,3-b]pyridin-4-yl]piperidine-4-carbonitrile] |  | 7.00 to 10.00 |
| Cn1cc(-c2ccc(-c3cnc4cccc(C#CC(C)(C)O)n34)cc2)cn1 [Compound P-0375, 2-methyl-4-(3-(4-(1-methyl-1H-pyrazol-4-yl)phenyl)imidazo[1,2-a]pyridin-5-yl)but-3-yn-2-ol] |  | 7.00 to 10.00 |
| CC(C)(O)C#Cc1cccn2ncc(-c3ccc(S(=O)(=O)N4CCCCC4)cc3)c12 [Compound P-0413, 2-methyl-4-(3-(4-(piperidin-1-ylsulfonyl)phenyl)pyrazolo[1,5-a]pyridin-4-yl)but-3-yn-2-ol] |  | 5.00 to 6.00 |
| Cn1cc(-c2ccc(-c3cnc4cccc(N5CCC6(CCNC6=O)CC5)n34)cc2)cn1 [Compound P-0450, 8-(3-(4-(1-methyl-1H-pyrazol-4-yl)phenyl)imidazo[1,2-a]pyridin-5-yl)-2,8-diazaspiro[4.5]decan-1-one] |  | 7.00 to 10.00 |
| Cn1cc(-c2ccc(-c3cnc4cccc(NCc5cccnc5)n34)cc2)cn1 [Compound P-0377, 3-(4-(1-methyl-1H-pyrazol-4-yl)phenyl)-N-(pyridin-3-ylmethyl)imidazo[1,2-a]pyridin-5-amine] |  | 5.00 to 6.00 |
| NC(=O)N1CCC(Oc2cccc3ncc(-c4ccc(-c5cnn(C(F)F)c5)cc4)n23)CC1 [Compound P-0299, 4-((3-(4-(1-(difluoromethyl)-1H-pyrazol-4-yl)phenyl)imidazo[1,2-a]pyridin-5-yl)oxy)piperidine-1-carboxamide] |  | 5.00 to 6.00 |
| COC(=O)C1(C)CCN(c2cccc3ncc(-c4ccc(-c5cnn(C)c5)cc4)n23)CC1 [Compound P-0399, methyl 4-methyl-1-(3-(4-(1-methyl-1H-pyrazol-4-yl)phenyl)imidazo[1,2-a]pyridin-5-yl)piperidine-4-carboxylate] |  | 5.00 to 6.00 |
| Cn1cc(C#Cc2cnc3cccc(C4=CCC(C#N)CC4)n23)cn1 (stereo not shown) [Compound P-0374, 4-(3-((1-methyl-1H-pyrazol-4-yl)ethynyl)imidazo[1,2-a]pyridin-5-yl)cyclohex-3-ene-1-carbonitrile] |  | 7.00 to 10.00 |
| Cn1ncc2ccc(-c3cnc4[nH]ccc4c3C3=CCC(C#N)CC3)cc21 (stereo not shown) [Compound P-0340, 4-(5-(1-methyl-1H-indazol-6-yl)-1H-pyrrolo[2,3-b]pyridin-4-yl)cyclohex-3-ene-1-carbonitrile] |  | 7.00 to 10.00 |
| Cn1ncc2cc(-c3cnn4ccnc(N5CCC(C#N)CC5)c34)ccc21 [Compound P-0326, 1-[3-(1-methylindazol-5-yl)pyrazolo[1,5-a]pyrazin-4-yl]piperidine-4-carbonitrile] |  | 5.00 to 6.00 |

| SMILES | pIC50 [1] | pIC50 [2] |
| --- | --- | --- |
| CC(C)(C)n1ncc2cc(-c3cnc4[nH]ccc4c3C3=CCC(C#N)CC3)ccc21 (stereo not shown) [Compound P-0344, 4-(5-(1-(tert-butyl)-1H-indazol-5-yl)-1H-pyrrolo[2,3-b]pyridin-4-yl)cyclohex-3-ene-1-carbonitrile] |  | 6.00 to 7.00 |
| CC(=O)N1CC=C(c2cccc3ncc(-c4ccc(-c5cnn(C)c5)cc4)n23)CC1 [Compound P-0436, 1-(4-(3-(4-(1-methyl-1H-pyrazol-4-yl)phenyl)imidazo[1,2-a]pyridin-5-yl)-3,6-dihydropyridin-1(2H)-yl)ethan-1-one] |  | 5.00 to 6.00 |
| Cn1ncc2cc(-c3cnc4[nH]ccc4c3C3=CCC(C(N)=O)CC3)ccc21 (stereo not shown) [Compound P-0335, 4-(5-(1-methyl-1H-indazol-5-yl)-1H-pyrrolo[2,3-b]pyridin-4-yl)cyclohex-3-ene-1-carboxamide] |  | 7.00 to 10.00 |
| Cn1cc(-c2ccc(-c3cnc4cccc(N5CCC(C(O)c6cccnc6)CC5)n34)cc2)cn1 (stereo not shown) [Compound P-0384, (1-(3-(4-(1-methyl-1H-pyrazol-4-yl)phenyl)imidazo[1,2-a]pyridin-5-yl)piperidin-4-yl)(pyridin-3-yl)methanol] |  | 5.00 to 6.00 |
| Cn1cc(-c2ccc(-c3cnc4[nH]cc(Cl)c4c3N3CCC(C#N)CC3)cc2)cn1 [Compound P-0360, 1-(3-chloro-5-(4-(1-methyl-1H-pyrazol-4-yl)phenyl)-1H-pyrrolo[2,3-b]pyridin-4-yl)piperidine-4-carbonitrile] |  | 7.00 to 10.00 |
| Cn1cc(-c2ccc(-c3cnc4cccc(OC5CCOCC5)n34)cc2)cn1 [Compound P-0427, 3-(4-(1-methyl-1H-pyrazol-4-yl)phenyl)-5-((tetrahydro-2H-pyran-4-yl)oxy)imidazo[1,2-a]pyridine] |  | 6.00 to 7.00 |
| Cn1cc(-c2ccc(-c3cnc4cccc(N5CCN(c6nccs6)CC5)n34)cc2)cn1 [Compound P-0383, 2-(4-(3-(4-(1-methyl-1H-pyrazol-4-yl)phenyl)imidazo[1,2-a]pyridin-5-yl)piperazin-1-yl)thiazole] |  | 5.00 to 6.00 |
| Cn1cc(-c2ccc(-c3cnc4cccc(NCCCO)n34)cc2)cn1 [Compound P-0390, 3-((3-(4-(1-methyl-1H-pyrazol-4-yl)phenyl)imidazo[1,2-a]pyridin-5-yl)amino)propan-1-ol] |  | 6.00 to 7.00 |
| Cn1ncc2cc(-c3cnc4cccc(C5=CCC(C#N)CC5)n34)ccc21 (stereo not shown) [Compound P-0367, 4-(3-(1-methyl-1H-indazol-5-yl)imidazo[1,2-a]pyridin-5-yl)cyclohex-3-ene-1-carbonitrile] |  | 7.00 to 10.00 |
| CC(C)(O)C#Cc1cccn2ncc(-c3ccc(NS(=O)(=O)C4CC4)cc3)c12 [Compound P-0412, N-(4-(4-(3-hydroxy-3-methylbut-1-yn-1-yl)pyrazolo[1,5-a]pyridin-3-yl)phenyl)cyclopropane-sulfonamide] |  | 6.00 to 7.00 |
| O=C(NCc1ccc(-c2cnc3cccc(N4CCC5(CCNC5=O)CC4)n23)cc1)c1cccnc1 [Compound P-0449, N-(4-(5-(1-oxo-2,8-diazaspiro[4.5]decan-8-yl)imidazo[1,2-a]pyridin-3-yl)benzyl)nicotinamide] |  | 5.00 to 6.00 |
| N#CC1CCN(c2c(-c3ccc4c(c3)OC(F)(F)O4)cnc3[nH]ccc23)CC1 [Compound P-0334, 1-(5-(2,2-difluorobenzo[d][1,3]dioxol-5-yl)-1H-pyrrolo[2,3-b]pyridin-4-yl)piperidine-4-carbonitrile] |  | 6.00 to 7.00 |
| Cn1cc(-c2ccc(-c3cnc4cccc(N5CCOCC5)n34)cc2)cn1 [Compound P-0395, 4-(3-(4-(1-methyl-1H-pyrazol-4-yl)phenyl)imidazo[1,2-a]pyridin-5-yl)morpholine] |  | 5.00 to 6.00 |
| FC(F)n1cc(-c2ccc(-c3cccn4ncc(-c5ccc(-c6cnn(C(F)F)c6)cc5)c34)cc2)cn1 [Compound P-0371, 3,4-bis(4-(1-(difluoromethyl)-1H-pyrazol-4-yl)phenyl)pyrazolo[1,5-a]pyridine] |  | 5.00 to 6.00 |
| Cn1cc(-c2ccc(-c3cnn4cccc(C5=CCS(=O)(=O)CC5)c34)cc2)cn1 [Compound P-0300, 4-(3-(4-(1-methyl-1H-pyrazol-4-yl)phenyl)pyrazolo[1,5-a]pyridin-4-yl)-3,6-dihydro-2H-thiopyran 1,1-dioxide] |  | 6.00 to 7.00 |
